Experimental data taken from PMC8950700 (Pharmaceuticals, 2022).
pIC50: −log10 of the molar value.

Legend:
H5N1V116A virus [1] = format: cell-based, influenza A virus
H5N1wild virus [2] = experiment: microbe, parasite or virus in culture; format: cell-based
H5N1wild virus [3] = conditions: mouse, in vivo
H1N1 virus [4] = conditions: mouse, in vivo
H1N1 virus [5] = format: cell-based
H5N1N295S virus [6] = format: cell-based, influenza A virus
H5N1wild virus [7] = format: cell-based
H5N1V116A virus [8] = format: cell-based, influenza A virus; remark: listed apart in the source
[9] = test system: A/California/04/2009 (H1N1); experiment: microbe, parasite or virus in culture; format: cell-based; conditions: read-out: IC50 (50% Inhibitory Concentration) H1N1
H1N1 virus [10] = format: cell-based, influenza A virus; conditions: 5 µM
H5N1V116A virus [11] = format: cell-based, influenza A virus; conditions: read-out: IC50 (50% Inhibitory Concentration) H5N1V116A
H5N1N295S virus [12] = format: cell-based, influenza A virus; remark: listed apart in the source
in vitro = conditions: dog
H5N1N295S virus [13] = format: cell-based, influenza A virus; conditions: read-out: IC50 (50% Inhibitory Concentration) H5N1N295S
[14] = test system: A/chicken/Egypt/B13825A/2017 (H5N1wild); experiment: microbe, parasite or virus in culture; format: cell-based; conditions: read-out: IC50 (50% Inhibitory Concentration) H5N1wild

CC(=O)N[C@H]1[C@H]([C@H](O)[C@H](O)CO)OC(C(=O)O)=C[C@@H]1N=C(N)N [zanamivir, reference compound]
viral inhibition in the count of plaques, H5N1V116A (H5N1V116A virus [1]): 60%
viral inhibition in the count of plaques, H5N1wild (H5N1wild virus [2]): 69.2%
viral titer in lung tissue (TCID50), H5N1wild (H5N1wild virus [3]): reduced the titration
mortality after infection with H1N1 (H1N1 virus [4]): 40%
viral titer in lung tissue (TCID50), H1N1 (H1N1 virus [4]): reduced the titration
virus shedding in the nasal wash (EID50), H1N1 (H1N1 virus [4]): significantly reduced the viral titer
inhibition in the viral HA titer, H1N1 (H1N1 virus [5]): not more than 80%
inhibition in the viral HA titer, H5N1N295S (H5N1N295S virus [6]): not more than 25%
inhibition in the viral HA titer, H5N1wild (H5N1wild virus [7]): not more than 25%
inhibition in the viral HA titer, H5N1V116A (H5N1V116A virus [8]): not more than 80%
pIC50 [9]: 5.78
viral inhibition in the count of plaques, H1N1 (H1N1 virus [10]): 96.5%
pIC50 (H5N1V116A virus [11]): 3.90
viral inhibition in the count of plaques, H5N1N295S (H5N1N295S virus [12]): 31%
CC50 at 72 h (in vitro): 589 µM
pIC50 (H5N1N295S virus [13]): 4.82
pIC50 [14]: 4.98
